Test [1] deals with RDES Ewing's sarcoma of bone tumor cells. Nature of the test: Assay of cell number (MTT), RDES cells. Type of test: cell-based. The settings on record: 1-mM, seventy-two hours. The text has this:
(§1) Methods: Human bone marrow was collected from consenting adult patients undergoing either an elective primary proximal femoral total hip arthroplasty or elective primary distal femoral total knee arthroplasty (n=6, mean age 65) as a part of an IRB approved study. Human MSC were derived from the adherent fraction of whole bone marrow aspirates. Ewing's sarcoma tumor cells (RDES, Hs822 and Hs863) and SaOS2 osteosarcoma tumor cells were obtained from ATCC. Cells were maintained in Dulbecco's Modification of Eagle's Media (DMEM) containing 10% fetal calf serum (v/v) and 1% penicillin-streptomycin-glutamine (PSG; Cellgro, Mediatech).
(§2) Assay of Cell Number: Following the addition of 1-mM naloxone or 1-mM naltrexone, viable cell number was determined with the MTT assay. After 72-hours and 120-hours, MTT (5 mg/ml (w/v), Sigma) was added to each well, incubated for 2-hours, after which the cells lysed with 500-μl of DMSO (Sigma). MTT was measured at 570-nm and the effects of therapy on cell proliferation were determined by normalizing treated wells relative to mean values from non-treated wells: Fold change in cell number=100*[treated cells optical density/mean control optical density].

Test [2] concerns SaO52 osteosarcoma tumor cells. Description: Assay of cell number (MTT), osteosarcoma cells. Format: cell-based. The settings on record: 1-mM, seventy-two hours.
Excerpt: as §1, §2

Test [3] has as its system Hs822t Ewing's sarcoma of bone tumor cells. Nature of the test: Assay of cell number (MTT), Hs822t cells. The settings on record: 1-mM, seventy-two hours. Type of test: cell-based.
Excerpt: as §1, §2

Test [4] deals with monocytes cultured to become osteoclasts. Nature of the test: TRAP staining and assay of osteoclast number. Format: cell-based, human, mouse. On the procedure:
TRAP Staining and the Assay of Osteoclast Number: Osteoclasts were derived from either an enriched population of human monocytes or from mouse non-enriched whole bone marrow aspirates. Three human patient bone marrow samples were assayed in parallel with samples collected from 3-week (n=10) mouse bone marrow. The monocyte fraction was stimulated to become osteoclasts by culturing 1×10^6 cells with 25-ng/mL of MCSF and 25-ng/mL of recombinant human or mouse RANK-ligand (R&D Systems) in the presence of the met5-ligand ([5-μM] 2.87-, or [50-μM] 28.7-μg; Sigma), naloxone (400-ng or 400-μg; Sigma) or naltrexone (378-ng or 378-μg; Sigma). Osteoclasts were stained with tartrate resistant acid phosphatase (TRAP; Sigma Leukocyte Acid Phosphatase Kit 387-A) and counted when cells stained TRAP-positive and had at least three nuclei. Estimates of osteoclast number were obtained by Cavalieri sampling and a modification of the fractionator technique.

A further test deals with monocyte cultures. Description: Assay of cell number (MTT) in monocyte cultures. Type of test: cell-based, human. Conditions: naloxone added to monocyte cultures. An excerpt: Methods: Human Bone Marrow was Collected from Consenting Adult Patients undergoing either an elective primary proximal femoral total hip arthroplasty or elective primary distal femoral total knee arthroplasty (n=6, mean age 65) as a part of an IRB approved study. Human MSC were derived from the adherent fraction of cells derived from each whole bone marrow aspirate collected, while the monocyte population was collected from the non-adherent fraction of the bone marrow. The monocyte fraction was enriched through sub-culture with 100-ng/mL recombinant human macrophage colony-stimulating factor (MCSF; Wyeth). In parallel experiments described below, the femurs from 3-week (n=10) and 16-week (n=20) old male mice were collected and then the bone marrow was flushed from the femur according to the following: A 21-gauge needle was inserted into the femoral intramedular canal after the removal of the proximal and distal ends of the femur. […]
Assay of Cell Number: Following the addition of 1-mM naloxone or 1-mM naltrexone, viable cell number was determined with the MTT assay. […] MTT was measured at 570-nm and the effects of therapy on cell proliferation were determined by normalizing treated wells relative to mean values from non-treated wells: Fold change in cell number=100*[treated cells optical density/mean control optical density].

The test system of the next test is MSC. Description: Assay of cell number (MTT) in MSC cultures. Type of test: cell-based, human. The settings on record: 1-mM. On the procedure:
as §2

Test [5] concerns posterolateral lumbar spine. Description: Rat posterolateral spinal fusion of L5-L6 vertebrae, microCT. Type of test: in vivo, Sprague-Dawley rats. Conditions: 2-months. An excerpt:
Rat Posterolateral Spinal Fusion of L5-L6 Vertebrae: 20 male, […] skeletally mature Sprague-Dawley rats underwent bilateral lumbar posterolateral spinal fusion at the L5-L6 vertebrae. […] Under sterile conditions a 2-cm long posterior midline incision centered at L5-L6 vertebrae was made. A muscle-splitting approach was used, lateral to the facet joints, to expose the transverse processes of a particular vertebra. A high-speed 1-mm burr was used to decorticate the transverse processes of the L5-L6 vertebrae. Implants were prepared and implanted between the transverse processes bilaterally in the paraspinal muscle bed. […] Animals were euthanized 2-months (n=5 rats per time point per treatment group for a total of n=20 rats) spines were collected and prepared for micro-CT (μCT) analysis.

The test system of test [6] is unicortical defect in mouse tibia. Nature of the test: Unicortical defect model, direct injection, microCT. Type of test: in vivo, C57BL/6 mice. On the procedure: Unicortical Defect Model: Male 3-week old C57BL/6 mice (n=5 per treatment group) were injected with met5, naloxone or naltrexone following the creation of a unicortical defect. Briefly, a small incision (approximately 3-mm) was made just below the knee joint, located on the medial side of the tibia just below the tibial tuberosity on the tibial crest. In young animals the physeal plate is clearly visible and the drill bit was placed approximately 1-mm below this point. The drill-bit produces a unicortical defect with dimensions 300-μm diameter×1-mm depth. A Hamilton Neuros RN 10-μL syringe with a 33-gauge blunt tip needle was used to inject 2-μL of met5 (28.7-μg), naloxone (400-μg) or naltrexone (378-μg) resuspended in saline directly into the unicortical defect at a rate no faster than approximately 0.1-μL per second. The left-limb tibias served as contra-lateral surgical controls, in which animals received a unicortical defect and 2-μL of saline was injected. Mice were euthanized 5-days after surgery, hind limbs were collected and tibias were fixed for immunofluorescence, TRAP staining and OTC associated bone growth.
MicroCT Analysis of Unicortical Defects: High-resolution images of the tibia were acquired with μCT imaging system (μT40; Scanco Medical). Tibias were scanned at 45-keV with an isotropic voxel size of 12-μm. An analysis region was selected from axial sections to include the entire unicortical defect bounded by the endosteal cortical wall. The volume corrected bone volume (bone volume/total volume; By/Tv), trabecular number (TbN) and trabecular thickness (TbTh) were calculated using the Scanco software.

The structures appear in SMILES notation.

One compound from patent US12258561B2, “Compositions and methods to promote bone formation and their uses including for the treatment of cancer” (THE RESEARCH FOUNDATION FOR THE STATE UNIVERSITY OF NEW YORK, priority 2014, dated 2025) can be followed below.

As for `C=CCN1CC[C@]23c4c5ccc(O)c4O[C@H]2C(=O)CC[C@@]3(O)[C@H]1C5` [naloxone], the “RDES tumor cell number relative to control cultures” value in test [1] is recorded as “decreased significantly”. Also, in test [2], the “SaO52 osteosarcoma cell number relative to control cultures” value is listed as “decreased significantly”. Besides, the “Hs822t tumor cell number relative to control cultures” value in test [3] was “no effect”. Besides, the “osteoclast number (TRAP staining)” value is reported as “reduced osteoclast number substantially” in test [4] (1-mM) and “did not significantly reduce osteoclast number” in test [4] (1-μM). Moreover, in the test on monocyte cultures, the “proliferation (cell number) in monocyte cultures” value is listed as “decreased proliferation”. Also, the “MSC proliferation (cell number)” value in the test on MSC (72-hours) is “suppressed, but did not stop”; with MSC (120-hours), “suppressed, but did not stop”. The “bone formation in the lumbar spine versus collagen implants alone” value in test [5] (collagen sponge implant, 25-ng BMP2 or 1-mM naloxone) is reported as “increased bone formation over the collagen implants alone”. In addition, the “Bv/Tv relative to spines implanted with collagen or the control sham surgery group” value in test [5] (naloxone infused collagen implant, 1-mM) is on record as “substantial increase in By/Tv”. In addition, in test [6] (1-mM injected into defect), the “increase in trabecular number (TbN)” value stood at 1.2 fold. Further, the “increase in bone mass (Bv/Tv)” value in test [6] (1-mM injected into defect, relative to control PBS or met5 treated defects) came to 1.53 fold. The bone healing entry in test [6] (naloxone 1-mM or met5 50-μM) is recorded as “increased bone healing”.
